Data as given in patent US10259810B2, “N-sulfonylated pyrazolo[3,4-b]pyridin-6-carboxamides and method of use” (AbbVie S.à.r.l., priority 2015, dated 2019).
pEC50: −log10 of the molar value.

Legend:
Format in all cases: cell-based
ΔF508-CFTR [1] = target: T1, ΔF508-CFTR (Homo sapiens, UniProt P13569, DEL508-508); test: CFTR cell surface levels using HRP-tagged ΔF508-CFTR expressing CFBE cells, in the presence of a co-corrector; settings: HRP-tagged ΔF508-CFTR CFBE cells, in the presence of 3 μM co-corrector; for pEC50: read-out: EC50
T1 construct: host or cells: CFBE41o-, doxycycline-inducible
T1 sequence (P13569 with tags, fused parts or gaps DEL508-508): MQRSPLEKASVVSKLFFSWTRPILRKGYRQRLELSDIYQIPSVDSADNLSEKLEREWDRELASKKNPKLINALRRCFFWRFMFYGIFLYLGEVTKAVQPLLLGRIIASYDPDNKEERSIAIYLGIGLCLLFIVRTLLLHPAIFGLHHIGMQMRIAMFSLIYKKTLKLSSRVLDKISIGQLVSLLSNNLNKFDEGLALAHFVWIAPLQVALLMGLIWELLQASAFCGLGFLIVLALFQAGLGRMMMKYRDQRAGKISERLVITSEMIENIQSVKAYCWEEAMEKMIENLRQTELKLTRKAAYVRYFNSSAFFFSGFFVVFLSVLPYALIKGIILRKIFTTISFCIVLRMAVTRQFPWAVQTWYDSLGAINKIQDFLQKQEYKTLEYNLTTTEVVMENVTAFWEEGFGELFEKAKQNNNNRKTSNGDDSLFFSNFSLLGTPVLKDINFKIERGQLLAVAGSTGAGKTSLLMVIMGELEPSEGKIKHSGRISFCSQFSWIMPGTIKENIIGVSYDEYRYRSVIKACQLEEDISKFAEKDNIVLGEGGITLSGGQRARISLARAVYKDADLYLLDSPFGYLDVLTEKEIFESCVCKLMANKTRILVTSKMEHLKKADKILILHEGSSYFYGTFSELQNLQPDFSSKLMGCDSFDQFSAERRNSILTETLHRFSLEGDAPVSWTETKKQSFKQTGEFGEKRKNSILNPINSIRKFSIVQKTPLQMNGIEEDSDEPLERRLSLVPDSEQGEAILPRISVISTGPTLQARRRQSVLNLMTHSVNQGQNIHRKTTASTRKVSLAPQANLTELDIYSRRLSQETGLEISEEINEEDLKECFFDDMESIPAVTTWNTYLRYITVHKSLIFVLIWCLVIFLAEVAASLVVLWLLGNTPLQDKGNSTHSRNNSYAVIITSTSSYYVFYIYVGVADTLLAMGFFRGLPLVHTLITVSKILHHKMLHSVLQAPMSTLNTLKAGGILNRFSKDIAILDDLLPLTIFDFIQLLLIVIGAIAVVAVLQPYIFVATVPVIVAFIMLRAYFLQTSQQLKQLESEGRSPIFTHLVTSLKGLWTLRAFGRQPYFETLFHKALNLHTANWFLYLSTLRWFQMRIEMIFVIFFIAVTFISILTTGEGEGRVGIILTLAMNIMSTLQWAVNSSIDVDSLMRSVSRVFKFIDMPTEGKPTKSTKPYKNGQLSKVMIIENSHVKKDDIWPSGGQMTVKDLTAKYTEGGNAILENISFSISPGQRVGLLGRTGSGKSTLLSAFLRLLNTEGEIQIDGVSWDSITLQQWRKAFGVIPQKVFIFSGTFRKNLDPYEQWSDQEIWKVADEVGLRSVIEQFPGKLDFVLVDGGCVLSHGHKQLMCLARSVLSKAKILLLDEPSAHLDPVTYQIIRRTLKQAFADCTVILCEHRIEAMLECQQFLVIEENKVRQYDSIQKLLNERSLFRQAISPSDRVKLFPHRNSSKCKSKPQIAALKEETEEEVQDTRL
Procedure, shortened: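 Chemiluminescent read-out of surface HRP (15 min, dark) after PBS washes. Activity is normalized as 100×(sample−DMSO)/(3 μM co-corrector alone−DMSO).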

ΔF508-CFTR [2] = target: T1, ΔF508-CFTR; test: CFTR cell surface levels using HRP-tagged ΔF508-CFTR expressing CFBE cells, intrinsic corrector capacity; parameters: % Activation: concentration or dose not given beside the values; settings: HRP-tagged ΔF508-CFTR expressing CFBE41o- cells, compound alone (intrinsic corrector capacity), 20 hours at 33° C.; for pEC50: read-out: EC50
Procedure, shortened: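 Read-out: chemiluminescent HRP activity of ECL4-HRP-tagged ΔF508-CFTR at the cell surface, 15 min substrate in dark. Normalized as 100×(sample−DMSO)/(positive control−DMSO).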

CFTR ΔF508 = target: T2, CFTR ΔF508 (Homo sapiens, UniProt P13569, DEL508-508); test: Chronic TECC assay, primary bronchial epithelial cells of CF patients homozygous for CFTR ΔF508 (corrector, co-corrector and potentiator); settings: chronic TECC, AUC = full area under the curve upon forskolin stimulation; for % Activity at 1 μM (AUC**): test compound at 1 μM; for EC50: read-out: EC50 (nM) (AUC**)
T2 construct: bronchial epithelial cells isolated from CF patients homozygous for the CFTR ΔF508 mutation; McGill University; Asterand; University of North Carolina hAEC-CF; host or cells: primary human bronchial epithelial cells from CF patients homozygous for ΔF508, differentiated at air-liquid interface
T2 sequence (P13569 with tags, fused parts or gaps DEL508-508): as above
Procedure, shortened: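 Primary bronchial epithelial cells from ΔF508-homozygous CF patients on collagen IV-coated Transwells were chronically treated with test compound plus corrector and potentiator, which were re-added before recording. Ieq was derived from PD and Rt in NaCl-Ringer, pH 7.4, at 37° C, with apical amiloride and bilateral forskolin, recorded every 2 min over 20 min. Ieq increase was normalized to controls, and EC50 was taken from per-well concentrations.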

COCC1CCN(c2cc(C(=O)NS(=O)(=O)N3CCC(F)CC3)nc3c2c(C2CCC2)nn3-c2ccccc2)CC1 [Compound 399, 3-cyclobutyl-N-(4-fluoropiperidine-1-sulfonyl)-4-[4-(methoxymethyl)piperidin-1-yl]-1-phenyl-1H-pyrazolo[3,4-b]pyridine-6-carboxamide]
% Activation (ΔF508-CFTR [1]): 388.77%
pEC50 (ΔF508-CFTR [1]): 7.36
% Activation (ΔF508-CFTR [2]): 237.5%
pEC50 (ΔF508-CFTR [2]): 7.14
% Activity at 1 μM (AUC**) (CFTR ΔF508): 244.7508%

COCC1CCN(c2cc(C(=O)NS(=O)(=O)N3CCN(C)CC3)nc3c2c(C2CCC2)nn3-c2ccccc2)CC1 [Compound 400, 3-cyclobutyl-4-[4-(methoxymethyl)piperidin-1-yl]-N-(4-methylpiperazine-1-sulfonyl)-1-phenyl-1H-pyrazolo[3,4-b]pyridine-6-carboxamide]
% Activation (ΔF508-CFTR [1]): 365.43%
pEC50 (ΔF508-CFTR [1]): 6.80
% Activation (ΔF508-CFTR [2]): 180.65%
pEC50 (ΔF508-CFTR [2]): 6.79
% Activity at 1 μM (AUC**) (CFTR ΔF508): 230%

COCC1CCN(c2cc(C(=O)NS(=O)(=O)N(C)C)nc3c2c(C2CCC2)nn3-c2ccccc2)CC1 [Compound 402, 3-cyclobutyl-N-(dimethylsulfamoyl)-4-[4-(methoxymethyl)piperidin-1-yl]-1-phenyl-1H-pyrazolo[3,4-b]pyridine-6-carboxamide]
% Activation (ΔF508-CFTR [1]): 471.42%
pEC50 (ΔF508-CFTR [1]): 6.93
% Activation (ΔF508-CFTR [2]): 303.5%
pEC50 (ΔF508-CFTR [2]): 6.51
EC50 (CFTR ΔF508): 12.1 nM
% Activity at 1 μM (AUC**) (CFTR ΔF508): 345.045%

CC(C)Oc1nn(C2CCCCC2)c2nc(C(=O)NS(C)(=O)=O)cc(-c3ccc(CN4CCOCC4)cc3)c12 [Compound 404, 1-cyclohexyl-N-(methanesulfonyl)-4-{4-[(morpholin-4-yl)methyl]phenyl}-3-[(propan-2-yl)oxy]-1H-pyrazolo[3,4-b]pyridine-6-carboxamide]
% Activation (ΔF508-CFTR [1]): 370%
pEC50 (ΔF508-CFTR [1]): 6.90
% Activation (ΔF508-CFTR [2]): 181.2%
pEC50 (ΔF508-CFTR [2]): 6.73
% Activity at 1 μM (AUC**) (CFTR ΔF508): 433.3333%

COCCS(=O)(=O)NC(=O)c1cc(-c2ccc(CN3CCOCC3)cc2)c2c(OC(C)C)nn(C3CCCCC3)c2n1 [Compound 405, 1-cyclohexyl-N-(2-methoxyethanesulfonyl)-4-{4-[(morpholin-4-yl)methyl]phenyl}-3-[(propan-2-yl)oxy]-1H-pyrazolo[3,4-b]pyridine-6-carboxamide]
% Activation (ΔF508-CFTR [1]): 326.9%
pEC50 (ΔF508-CFTR [1]): 6.99
% Activation (ΔF508-CFTR [2]): 160.8%
pEC50 (ΔF508-CFTR [2]): 6.72
% Activity at 1 μM (AUC**) (CFTR ΔF508): 323.3333%

CC(C)Oc1nn(C2CCCCC2)c2nc(C(=O)NS(=O)(=O)N(C)C)cc(-c3ccc(CN4CCOCC4)cc3)c12 [Compound 406, 1-cyclohexyl-N-(dimethylsulfamoyl)-4-{4-[(morpholin-4-yl)methyl]phenyl}-3-[(propan-2-yl)oxy]-1H-pyrazolo[3,4-b]pyridine-6-carboxamide]
% Activation (ΔF508-CFTR [1]): 311.35%
pEC50 (ΔF508-CFTR [1]): 6.74
% Activation (ΔF508-CFTR [2]): 125.95%
pEC50 (ΔF508-CFTR [2]): 6.62
% Activity at 1 μM (AUC**) (CFTR ΔF508): 235%

COCCS(=O)(=O)NC(=O)c1cc(N2CCC(N3CCOCC3)CC2)c2c(C3CCC3)nn(-c3ccc(F)cc3)c2n1 [Compound 407, 3-cyclobutyl-1-(4-fluorophenyl)-N-(2-methoxyethanesulfonyl)-4-[4-(morpholin-4-yl)piperidin-1-yl]-1H-pyrazolo[3,4-b]pyridine-6-carboxamide]
% Activation (ΔF508-CFTR [1]): 494.15%
pEC50 (ΔF508-CFTR [1]): 6.91
% Activation (ΔF508-CFTR [2]): 331.45%
pEC50 (ΔF508-CFTR [2]): 6.30
EC50 (CFTR ΔF508): 48.9 nM
% Activity at 1 μM (AUC**) (CFTR ΔF508): 310%

CN(C)S(=O)(=O)NC(=O)c1cc(N2CCC(CN3CCOCC3)CC2)c2c(C3CCC3)nn(-c3ccc(F)cc3)c2n1 [Compound 409, 3-cyclobutyl-N-(dimethylsulfamoyl)-1-(4-fluorophenyl)-4-{4-[(morpholin-4-yl)methyl]piperidin-1-yl}-1H-pyrazolo[3,4-b]pyridine-6-carboxamide]
% Activation (ΔF508-CFTR [1]): 481.1%
pEC50 (ΔF508-CFTR [1]): 6.97
% Activation (ΔF508-CFTR [2]): 245.4%
pEC50 (ΔF508-CFTR [2]): 6.81
EC50 (CFTR ΔF508): 150 nM
% Activity at 1 μM (AUC**) (CFTR ΔF508): 420%

CS(=O)(=O)NC(=O)c1cc(N2CCC(CN3CCOCC3)CC2)c2c(C3CCC3)nn(-c3ccc(F)cc3)c2n1 [Compound 410, 3-cyclobutyl-1-(4-fluorophenyl)-N-(methanesulfonyl)-4-{4-[(morpholin-4-yl)methyl]piperidin-1-yl}-1H-pyrazolo[3,4-b]pyridine-6-carboxamide]
% Activation (ΔF508-CFTR [1]): 529.58%
pEC50 (ΔF508-CFTR [1]): 7.08
% Activation (ΔF508-CFTR [2]): 337.42%
pEC50 (ΔF508-CFTR [2]): 6.67
EC50 (CFTR ΔF508): 1.58 nM
% Activity at 1 μM (AUC**) (CFTR ΔF508): 233.3333%

COCCS(=O)(=O)NC(=O)c1cc(N2CCC(CCN3CCOCC3)CC2)c2c(C3CCC3)nn(-c3ccc(F)cc3)c2n1 [Compound 415, 3-cyclobutyl-1-(4-fluorophenyl)-N-(2-methoxyethanesulfonyl)-4-{4-[2-(morpholin-4-yl)ethyl]piperidin-1-yl}-1H-pyrazolo[3,4-b]pyridine-6-carboxamide]
% Activation (ΔF508-CFTR [1]): 598%
pEC50 (ΔF508-CFTR [1]): 7.16
% Activation (ΔF508-CFTR [2]): 365.4%
pEC50 (ΔF508-CFTR [2]): 6.78
EC50 (CFTR ΔF508): 28.4 nM
% Activity at 1 μM (AUC**) (CFTR ΔF508): 196.1812%

CN(C)S(=O)(=O)NC(=O)c1cc(N2CCC(CCN3CCOCC3)CC2)c2c(C3CCC3)nn(-c3ccc(F)cc3)c2n1 [Compound 416, 3-cyclobutyl-N-(dimethylsulfamoyl)-1-(4-fluorophenyl)-4-{4-[2-(morpholin-4-yl)ethyl]piperidin-1-yl}-1H-pyrazolo[3,4-b]pyridine-6-carboxamide]
% Activation (ΔF508-CFTR [1]): 458.65%
pEC50 (ΔF508-CFTR [1]): 7.19
% Activation (ΔF508-CFTR [2]): 288%
pEC50 (ΔF508-CFTR [2]): 6.85
EC50 (CFTR ΔF508): 119 nM
% Activity at 1 μM (AUC**) (CFTR ΔF508): 288.6036%

COCC1CCN(c2cc(C(=O)NS(=O)(=O)CC3COCCO3)nc3c2c(C2CCC2)nn3-c2ccccc2)CC1 (stereo not drawn) [Compound 417, 3-cyclobutyl-N-[(1,4-dioxan-2-yl)methanesulfonyl]-4-[4-(methoxymethyl)piperidin-1-yl]-1-phenyl-1H-pyrazolo[3,4-b]pyridine-6-carboxamide]
% Activation (ΔF508-CFTR [1]): 539.75%
pEC50 (ΔF508-CFTR [1]): 7.04
% Activation (ΔF508-CFTR [2]): 307.45%
pEC50 (ΔF508-CFTR [2]): 6.72
% Activity at 1 μM (AUC**) (CFTR ΔF508): 256.6667%

CS(=O)(=O)NC(=O)c1cc(N2CCC(N3CCOCC3)CC2)c2c(C3CCC3)nn(C3CCCCC3)c2n1 [Compound 418, 3-cyclobutyl-1-cyclohexyl-N-(methanesulfonyl)-4-[4-(morpholin-4-yl)piperidin-1-yl]-1H-pyrazolo[3,4-b]pyridine-6-carboxamide]
% Activation (ΔF508-CFTR [1]): 512.9%
pEC50 (ΔF508-CFTR [1]): 6.66
% Activation (ΔF508-CFTR [2]): 321.3%
pEC50 (ΔF508-CFTR [2]): 6.49
EC50 (CFTR ΔF508): 19.2 nM
% Activity at 1 μM (AUC**) (CFTR ΔF508): 196.6667%

CN(C)S(=O)(=O)NC(=O)c1cc(N2CCC(N3CCOCC3)CC2)c2c(C3CCC3)nn(C3CCCCC3)c2n1 [Compound 420, 3-cyclobutyl-1-cyclohexyl-N-(dimethylsulfamoyl)-4-[4-(morpholin-4-yl)piperidin-1-yl]-1H-pyrazolo[3,4-b]pyridine-6-carboxamide]
% Activation (ΔF508-CFTR [1]): 486.65%
pEC50 (ΔF508-CFTR [1]): 6.68
% Activation (ΔF508-CFTR [2]): 283.1%
pEC50 (ΔF508-CFTR [2]): 6.33
% Activity at 1 μM (AUC**) (CFTR ΔF508): 223.3333%

CC(C)Oc1nn(C2CCCCC2)c2nc(C(=O)NS(C)(=O)=O)cc(-c3ccc(C(=O)N4CCN(C)CC4)cc3)c12 [Compound 422, 1-cyclohexyl-N-(methanesulfonyl)-4-[4-(4-methylpiperazine-1-carbonyl)phenyl]-3-[(propan-2-yl)oxy]-1H-pyrazolo[3,4-b]pyridine-6-carboxamide]
% Activation (ΔF508-CFTR [1]): 434.33%
pEC50 (ΔF508-CFTR [1]): 6.69
% Activation (ΔF508-CFTR [2]): 222.8%
pEC50 (ΔF508-CFTR [2]): 6.50
% Activity at 1 μM (AUC**) (CFTR ΔF508): 320%

CC(C)Oc1nn(C2CCCCC2)c2nc(C(=O)NS(=O)(=O)N(C)C)cc(-c3ccc(C(=O)N4CCN(C)CC4)cc3)c12 [Compound 423, 1-cyclohexyl-N-(dimethylsulfamoyl)-4-[4-(4-methylpiperazine-1-carbonyl)phenyl]-3-[(propan-2-yl)oxy]-1H-pyrazolo[3,4-b]pyridine-6-carboxamide]
% Activation (ΔF508-CFTR [1]): 376.85%
pEC50 (ΔF508-CFTR [1]): 6.96
% Activation (ΔF508-CFTR [2]): 175.55%
pEC50 (ΔF508-CFTR [2]): 6.85
EC50 (CFTR ΔF508): 39.8 nM
% Activity at 1 μM (AUC**) (CFTR ΔF508): 365%

CN(C)S(=O)(=O)NC(=O)c1cc(N2CCC(CN3CCOCC3)CC2)c2c(C3CCC3)nn(C3CCCCC3)c2n1 [Compound 424, 3-cyclobutyl-1-cyclohexyl-N-(dimethylsulfamoyl)-4-{4-[(morpholin-4-yl)methyl]piperidin-1-yl}-1H-pyrazolo[3,4-b]pyridine-6-carboxamide]
% Activation (ΔF508-CFTR [1]): 453.88%
pEC50 (ΔF508-CFTR [1]): 7.04
% Activation (ΔF508-CFTR [2]): 249.25%
pEC50 (ΔF508-CFTR [2]): 6.61
% Activity at 3 μM (AUC**) (CFTR ΔF508; test compound at 3 μM): 462.0976%
